{
  "source": "paper PMC12144510",
  "about": "“SIRT3 Functions as an Eraser of Histone H3K9 Lactylation to Modulate Transcription for Inhibiting the Progression of Esophageal Cancer” (Molecular & Cellular Proteomics : MCP, 2025)",
  "key": {"H3K9la": {"tested_on": "H3K9la", "experiment": "H3K9la level in cells with SIRT3 inhibitor (Western blot)", "assay_type": "cell-based, human"}, "KYSE30 cells [1]": {"tested_on": "KYSE30 cells", "experiment": "Cell proliferation / viability (CCK-8)", "assay_type": "cell-based, human", "settings": "ESCC cell (KYSE30), CCK-8, n = 8; supplemental Fig. S2G"}, "ESCC cell": {"tested_on": "ESCC cell", "experiment": "Colony formation assay", "assay_type": "cell-based, human", "description": "The cells (KYSE30 cells with SIRT3 KO and overexpression) to be observed were counted, and 1000 cells/well were inoculated into the 12-well plate culture plate, and the medium was changed every 3 days. About a week after cell culture, the cells were washed twice with PBS and fixed with 1 ml 4% paraformaldehyde for 10 min. The cells were stained with crystal violet solution for 5 to 10 min, and the excess crystal violet solution was washed away with PBS. The formation of cell clones was photographed. The results were analyzed by ImageJ software (v.ImageJ2).\nThe cells were counted and 1000 cells were inoculated in 6-well plate plates, and the medium was changed every 3 days. After about 1 week of cell culture, the cells were washed twice with PBS and fixed with 1 ml 4% paraformaldehyde for 30 min. Dye crystal violet for 5 to 10 min and then the cells were washed with PBS. The formation of cell clones was photographed and analyzed using ImageJ software."}, "KYSE30 cells [2]": {"tested_on": "KYSE30 cells", "experiment": "Cell migration (wound healing assay)", "assay_type": "cell-based, human", "settings": "n = 8, supplemental Fig. S2H", "description": "The wound healing assay involved seeding cells in 6-well plates. After the cells (KYSE30 cells with SIRT3 KO and overexpression) were fused, they were scraped off with the tip of the pipette, and the floating cells were washed away with PBS. Immediately afterward, the wounds were photographed. After culture in serum-free medium for 24 h, the wounds were photographed again."}, "SIRT3": {"tested_on": "SIRT3", "set-up": "method as in PMID 26120888", "settings": "cited from earlier work"}, "H3K9la in HEK 293T cells": {"tested_on": "H3K9la in HEK 293T cells", "experiment": "H3K9la level after sodium lactate stimulation", "assay_type": "cell-based, human", "settings": "20 mM sodium lactate, 24 h, Figure S4B", "description": "Histone was isolated from HEK 293T cells by acid extraction. In short, HEK 293T cells were treated with 20 mM sodium lactate for 24 h and harvested by centrifugation. The harvested HEK 293T cells were resuspended with lysis buffers (10 mM Tris–HCl pH 8.0, 1 mM KCl, 1.5 mM MgCl2, 1 mM DTT, 2 mM PMSF, and Roche Complete EDTA free protease inhibitor) and incubated at 4 °C for 1 h. The intact nuclei were centrifuged at 2000g at 4 °C for 10 min to form pellets. To extract histones, 0.4 M H2SO4 was added to the suspension nucleus and then rotated overnight at 4 °C. After removal of nuclear debris by centrifugation at 10,000g at 4 °C for 10 min, histone was precipitated by adding 100% trichloroacetic acid (trichloroacetic acid final concentration 33%). The precipitated histones were incubated at 4 °C for 10 min and washed with acetone twice. The dried protein particles were dissolved with ddH2O. Subsequently, 4 ∼ 6 μg histone was incubated with 10 μM SIRT3 in 100 μl PBS supplemented by 5 mM NAD^+ at 37 °C for 5 h. The lactylation levels at histone were detected by Western blot."}},
  "note": "Entries after “also recorded” stand apart in the source; their conditions may differ.",
  "data": [
    {"molecule": "c1cncc(-c2cn[nH]n2)c1", "note": "[3-TYP]", "values": [
      {"measurement": "delactylation of SIRT3 with inhibitor", "setting": "H3K9la; Figure S2F", "value": "decreasing delactylation"},
      {"measurement": "level of H3K9la in cells", "setting": "H3K9la; compared with dimethyl sulfoxide, supplemental Fig. S2F", "value": "increased H3K9la levels; also recorded: significantly increased"},
      {"measurement": "cell proliferation", "setting": "KYSE30 cells [1]", "value": "significantly increased; also recorded: Increasing efficiencies of proliferation"},
      {"measurement": "colony formation", "setting": "ESCC cell", "value": "Increasing efficiencies of proliferation and colony formation"},
      {"measurement": "cell migration ability", "setting": "KYSE30 cells [2]", "value": "significantly increased"},
      {"measurement": "SIRT3 inhibition selectivity", "setting": "SIRT3", "value": "selective SIRT3 inhibitor"}
    ]},
    {"molecule": "CC(O)C(=O)[O-].[Na+]", "note": "(stereo not shown) [sodium lactate]", "values": [
      {"measurement": "H3K9la level", "setting": "H3K9la in HEK 293T cells", "value": "increased"}
    ]}
  ]
}
